{"source": "patent US8785594B2", "about": "“Glycoproteins and glycosylated cells and a method for the preparation of the same” (Glycom A/S, priority 2007, dated 2014)", "type_in_all_cases": "cell-based", "key": {"B16.BL6 melanoma cells [1]": {"tested_on": "B16.BL6 melanoma cells", "test": "Cell concentration and viability after conjugation, trypan blue (Example 11)", "procedure": "Two flasks (300 cm^2) (TPP, Trasadingen Switzerland) of confluent B16.BL6 melanoma cells grown in DMEM containing 10% fetal calf serum (without P/S) at 37.5° C. in 5% CO2 were used for this experiment. Growth medium was removed from the cells and 25 mL of PBS (without Mg^2+ and Ca^2+) (Gibco Invitrogen, Taastrup, Denmark) was added to the cells and immediately removed again. Another 10 mL of PBS was added and removed, before cells were harvested with Cell Dissociation Solution C5914 (Sigma-aldrich, Saint Louis, Mo.) (3 mL per flask) and transferred to 10 mL tubes (TPP, Trasadingen Switzerland). The cells were centrifuged for 5 minutes at 300 G at 20° C. and the supernatant was discarded. Subsequently, cells were washed in PBS (without Mg^2+ and Ca^2+), centrifuged as above and resuspended in PBS (without Mg^2+ and Ca^2+). The concentration of the cell suspension was determined.\n(§1) Five hundred mg of alpha-Gal trisaccharide-carbamate (9) was dissolved in PBS (without Mg^2+ and Ca^2+) (Gibco Invitrogen, Taastrup, Denmark) and passed through a sterile filter (Sartorius Minisart®, 0.20 my) (Sartorius, Goettingen, Germany). Eight different concentrations of conjugate were prepared. Two mL of each conjugate dilution was added to a flask with 2 mL of PBS (without Mg^2+ and Ca^2+) and 600 μl of cell suspension containing 10^6 B16.BL6 cells. The final volume of the flasks was 4.6 mL. The flasks were numbered 1 to 10. Flasks 1 and 10 contained no conjugate and served as controls. The cells were incubated with the conjugate for 3 hours and 25 minutes at 37° C. and 5% CO2.\nAfter conjugation, cells from conjugation reaction 1 (non-conjugated cells), 2, 4, 6 and 8 were harvested with 10 mL of Cell Dissociation Solution C5914 (Sigma-Aldrich, Saint Louis, Mo.) and transferred to 10 mL tubes (TPP, Trasadingen Switzerland). Cells were centrifuged for 5 minutes at 300 G at 20° C. and resuspended in PBS (without Mg^2+ and Ca^2+). Finally, cells were centrifuged as before and resuspended in 100 μl TBS with 1% BSA. Cell concentration and viability was determined by microscopic evaluation of trypan blue stained cell samples. Cells from conjugation reaction 3, 5, 7, 9 and 10 (non-conjugated cells), were harvested the following day as described above. The cells were centrifuged once for 5 minutes at 300 G at 20° C. and resuspended in 100 μl TBS with 1% BSA. Cell concentration and viability was determined by microscopic evaluation of trypan blue stained cell samples."}, "B16.BL6 melanoma cells [2]": {"tested_on": "B16.BL6 melanoma cells", "test": "Flow cytometry with FITC-labelled GS1B4 (Example 11)", "procedure": "as §1\nB16.BL6 cells from conjugation reaction 1 (non-conjugated cells), 2, 4, 6 and 8 were analysed by flow cytometry. One hundred μL of cell suspension containing 1×10^5 cells were incubated for 15 minutes at 4° C. with 10 μg per mL (1:100 dilution) of FITC-labelled GS1B4 in TBS containing 1% BSA. The proportion of cells stained, mean and median cell fluorescence intensity was determined by flow cytometry. Afterwards, cells were washed once in PBS and measurements were repeated. Rabbit red blood cells (RRBC) known to express ˜2×10^6 Galα1,3Gal epitopes per cell were used for comparison. The analyses of conjugated B16.BL6 cells and RRBCs were performed on different days."}, "B16.BL6 melanoma cells [3]": {"tested_on": "B16.BL6 melanoma cells", "test": "Scintillation, estimation of epitopes per cell (Example 14)", "procedure": "Radioactive labelled and regular trisaccharide probe was dissolved in HBSS containing D-glucose (without Mg^2+ and Ca^2+) (Gibco Invitrogen, Taastrup, Denmark) and passed through sterile filters (0.2 μm Supor® Acrodisc® 13, Gelman Sciences, Ann Arbor, Mich.). Four different concentrations of each “Glycom conjugate” (25 mg, 5 mg, 1 mg and 0.1 mg) were made. Twelve flasks (150 cm^2) (TPP, Trasadingen Switzerland) were prepared each containing a total of 10×10^6 B16.BL6 cells. The trisaccharide probe was added and the total volume was adjusted to 20 mL with HBSS containing D-glucose (without Mg^2+ and Ca^2+). The cells were incubated with the “Glycom conjugate” for 1.5 hours at 37° C. After conjugation, the supernatant from each flask was transferred to separate 50 mL tubes (TPP, Trasadingen Switzerland). The cells were harvested with Cell Dissociation Solution C5914 (5 mL per flask) (Sigma-Aldrich, Saint Louis, Mo. and transferred to the 50 mL tubes containing the supernatant. The cells were centrifuged for 3 minutes at 300 G at 20° C. and resuspended in 5 mL of PBS (without Mg^2+ and Ca^2+). This was repeated 3 times before cell concentration and viability was determined by microscopical evaluation of trypan blue stained cell samples.\nCells conjugated with radioactive labelled trisaccharide probe were centrifuged for 5 minutes at 1000 G at 20° C. The supernatants were discharged and the remaining pellets were dried. Subsequently, the pellets were dissolved in 400 μl Mili-Q H2O and 1.5 mL of scintillation fluid was added. Standards for the scintillation were made by adding 500 pCi, 0.5 pCi and 0 pCi to the 3 samples of control cells. The samples were stored at room temperature for 3 days, before the cell suspensions were transferred to scintillation vials and counted."}, "[4]": {"conditions": "reaction 2, 200 mg conjugate, 10^6 cells, PBS, 3 h 25 min 37° C."}, "[5]": {"conditions": "reaction 3, 100 mg conjugate, measured 1 day after the conjugation procedure"}, "[6]": {"conditions": "reaction 5, 20 mg conjugate, measured 1 day after the conjugation procedure"}, "[7]": {"conditions": "reaction 7, 5 mg conjugate, measured 1 day after the conjugation procedure"}, "[8]": {"conditions": "reaction 9, 1 mg conjugate, measured 1 day after the conjugation procedure"}, "[9]": {"conditions": "unwashed cells, reaction 2 (200 mg conjugate)"}, "[10]": {"conditions": "unwashed cells, reaction 6 (10 mg conjugate)"}, "[11]": {"conditions": "unwashed cells, reaction 8 (2 mg conjugate)"}, "[12]": {"conditions": "washed cells, reaction 2 (200 mg conjugate)"}, "[13]": {"conditions": "washed cells, reaction 6 (10 mg conjugate)"}, "[14]": {"conditions": "washed cells, reaction 8 (2 mg conjugate)"}}, "data": [{"smiles": "O=C1N[C@@H]2O[C@H](CO)[C@@H](O[C@@H]3O[C@H](CO)[C@H](O)[C@H](O[C@H]4O[C@H](CO)[C@H](O)[C@H](O)[C@H]4O)[C@H]3O)[C@H](O)[C@H]2O1", "note": "[Compound 9, alpha-Gal trisaccharide-carbamate]", "values": [{"measurement": "Cell concentration", "setting": "B16.BL6 melanoma cells [1]; [4]", "value": "3.50 × 10^6 cells/mL"}, {"measurement": "Cell viability", "setting": "B16.BL6 melanoma cells [1]; [4]", "value": 58.9, "unit": "%"}, {"measurement": "Cell concentration", "setting": "B16.BL6 melanoma cells [1]; [5]", "value": "3.08 × 10^6 cells/mL"}, {"measurement": "Cell viability", "setting": "B16.BL6 melanoma cells [1]; [5]", "value": 65.6, "unit": "%"}, {"measurement": "Cell concentration", "setting": "B16.BL6 melanoma cells [1]; reaction 4, 50 mg conjugate", "value": "3.16 × 10^6 cells/mL"}, {"measurement": "Cell viability", "setting": "B16.BL6 melanoma cells [1]; reaction 4, 50 mg conjugate", "value": 1.9, "unit": "%"}, {"measurement": "Cell concentration", "setting": "B16.BL6 melanoma cells [1]; [6]", "value": "1.90 × 10^6 cells/mL"}, {"measurement": "Cell viability", "setting": "B16.BL6 melanoma cells [1]; [6]", "value": 0.0, "unit": "%"}, {"measurement": "Cell concentration", "setting": "B16.BL6 melanoma cells [1]; reaction 6, 10 mg conjugate", "value": "2.26 × 10^6 cells/mL"}, {"measurement": "Cell viability", "setting": "B16.BL6 melanoma cells [1]; reaction 6, 10 mg conjugate", "value": 16.8, "unit": "%"}, {"measurement": "Cell concentration", "setting": "B16.BL6 melanoma cells [1]; [7]", "value": "2.02 × 10^6 cells/mL"}, {"measurement": "Cell viability", "setting": "B16.BL6 melanoma cells [1]; [7]", "value": 34.7, "unit": "%"}, {"measurement": "Cell concentration", "setting": "B16.BL6 melanoma cells [1]; reaction 8, 2 mg conjugate", "value": "2.22 × 10^6 cells/mL"}, {"measurement": "Cell viability", "setting": "B16.BL6 melanoma cells [1]; reaction 8, 2 mg conjugate", "value": 8.1, "unit": "%"}, {"measurement": "Cell concentration", "setting": "B16.BL6 melanoma cells [1]; [8]", "value": "2.12 × 10^6 cells/mL"}, {"measurement": "Cell viability", "setting": "B16.BL6 melanoma cells [1]; [8]", "value": 16.0, "unit": "%"}, {"measurement": "Galα1,3Gal epitopes detected by binding of FITC-labelled GS1B4, flow cytometry", "setting": "B16.BL6 melanoma cells [2]; conjugation reactions 2, 6 and 8", "value": "found on B16.BL6 cells from all conjugation reactions tested"}, {"measurement": "Number of Galα1,3Gal-epitopes on the conjugated cells", "setting": "B16.BL6 melanoma cells [2]; from fluorescence intensity, compared with rabbit red blood cells", "value": "> 2×10^6 Galα1,3Gal epitopes"}, {"measurement": "Cells marked with FITC-GS1B4", "setting": "B16.BL6 melanoma cells [2]; reaction 2 (200 mg conjugate)", "value": 95.82, "unit": "%"}, {"measurement": "Cells marked with FITC-GS1B4", "setting": "B16.BL6 melanoma cells [2]; reaction 6, 10 mg conjugate", "value": 62.17, "unit": "%"}, {"measurement": "Cells marked with FITC-GS1B4", "setting": "B16.BL6 melanoma cells [2]; reaction 8, 2 mg conjugate", "value": 56.82, "unit": "%"}, {"measurement": "Mean fluorescence intensity", "setting": "B16.BL6 melanoma cells [2]; [9]", "value": 726.72}, {"measurement": "Median fluorescence intensity", "setting": "B16.BL6 melanoma cells [2]; [9]", "value": 523.30}, {"measurement": "Mean fluorescence intensity", "setting": "B16.BL6 melanoma cells [2]; [10]", "value": 862.24}, {"measurement": "Median fluorescence intensity", "setting": "B16.BL6 melanoma cells [2]; [10]", "value": 798.63}, {"measurement": "Mean fluorescence intensity", "setting": "B16.BL6 melanoma cells [2]; [11]", "value": 594.99}, {"measurement": "Median fluorescence intensity", "setting": "B16.BL6 melanoma cells [2]; [11]", "value": 572.55}, {"measurement": "Mean fluorescence intensity", "setting": "B16.BL6 melanoma cells [2]; [12]", "value": 447.48}, {"measurement": "Median fluorescence intensity", "setting": "B16.BL6 melanoma cells [2]; [12]", "value": 321.97}, {"measurement": "Mean fluorescence intensity", "setting": "B16.BL6 melanoma cells [2]; [13]", "value": 439.04}, {"measurement": "Median fluorescence intensity", "setting": "B16.BL6 melanoma cells [2]; [13]", "value": 406.79}, {"measurement": "Mean fluorescence intensity", "setting": "B16.BL6 melanoma cells [2]; [14]", "value": 264.30}, {"measurement": "Median fluorescence intensity", "setting": "B16.BL6 melanoma cells [2]; [14]", "value": 259.45}]}, {"smiles": "O=[13C]1N[C@@H]2O[C@H](CO)[C@@H](O[C@@H]3O[C@H](CO)[C@H](O)[C@H](O[C@H]4O[C@H](CO)[C@H](O)[C@H](O)[C@H]4O)[C@H]3O)[C@H](O)[C@H]2O1", "note": "[radioactive labelled conjugate]", "values": [{"measurement": "Epitopes per cell", "setting": "B16.BL6 melanoma cells [3]; 0.1 mg conjugate added", "value": "3.6 × 10^6"}, {"measurement": "Epitopes per cell", "setting": "B16.BL6 melanoma cells [3]; 1 mg conjugate added", "value": "28.3 × 10^6"}, {"measurement": "Epitopes per cell", "setting": "B16.BL6 melanoma cells [3]; 5 mg conjugate added, cells from supernatant only", "value": "152.4 × 10^6"}, {"measurement": "Epitopes per cell", "setting": "B16.BL6 melanoma cells [3]; 25 mg conjugate added, attached cells only", "value": "364.2 × 10^6"}, {"measurement": "Relation of scintillation counts to dose of conjugate", "setting": "B16.BL6 melanoma cells [3]; 0.1-25 mg", "value": "positive correlation"}]}]}
